Assay results reported in patent US9604989B2, “Imidazopyridazines as Akt kinase inhibitors” (Bayer Intellectual Property GmbH, priority 2011, dated 2017).

Tests used:
[1] = molecular target: His-tagged human recombinant kinase full-length Akt1 (Homo sapiens (Human), UniProt P31749); assay: Akt1 kinase assay (Akt1 TR-FRET assay); format: biochemical; conditions: 10 μM ATP, 60 min at 22° C., read-out: Akt1 median IC50
From the text: Biological Assay 1.0: Akt1 Kinase Assay
Akt1 inhibitory activity of compounds of the present invention was quantified employing the Akt1 TR-FRET assay as described in the following paragraphs.
His-tagged human recombinant kinase full-length Akt1 expressed in insect cells was purchased form Invitrogen (part number PV 3599). As substrate for the kinase reaction the biotinylated peptide biotin-Ahx-[sequence] (C-terminus in amide form) was used which can be purchased e.g. from the company Biosynthan GmbH (Berlin-Buch, Germany).
For the assay 50 nl of a 100 fold concentrated solution of the test compound in DMSO was pipetted into a black low volume 384 well microtiter plate (Greiner Bio-One, Frickenhausen, Germany), 2 μl of a solution of Akt1 in assay buffer [50 mM TRIS/HCl pH 7.5, 5 mM MgCl2, 1 mM dithiothreitol, 0.02% (v/v) Triton X-100 (Sigma)] were added and the mixture was incubated for 15 min at 22° C. to allow pre-binding of the test compounds to the enzyme before the start of the kinase reaction. Then the kinase reaction was started by the addition of 3 μl of a solution of adenosine-tri-phosphate (ATP, 16.7 μM=>final conc. in the 5 μl assay volume is 10 μM) and substrate (1.67 μM=>final conc. in the 5 μl assay volume is 1 μM) in assay buffer and the resulting mixture was incubated for a reaction time of 60 min at 22° C. The concentration of Akt1 in the assay was adjusted depending of the activity of the enzyme lot and was chosen appropriate to have the assay in the linear range, typical enzyme concentrations were in the range of about 0.05 ng/μl (final conc. in the 5 μl assay volume). The reaction was stopped by the addition of 5 μl of a solution of HTRF detection reagents (200 nM streptavidine-XL665 [Cisbio] and 1.5 nM anti-phosho-Serine antibody [Millipore, cat. #35-001] and 0.75 nM LANCE Eu-W 1024 labeled anti-mouse IgG antibody [Perkin Elmer]) in an aqueous EDTA-solution (100 mM EDTA, 0.1% (w/v) bovine serum albumin in 50 mM HEPES/NaOH pH 7.5). The resulting mixture was incubated 1 h at 22° C. to allow the binding of the biotinylated phosphorylated peptide to the streptavidine-XL665 and the antibodies. Subsequently the amount of phosphorylated substrate was evaluated by measurement of the resonance energy transfer from the anti-mouse-IgG-Eu-Chelate to the streptavidine-XL665. Therefore, the fluorescence emissions at 620 nm and 665 nm after excitation at 350 nm was measured in a HTRF reader, e.g. a Rubystar (BMG Labtechnologies, Offenburg, Germany) or a Viewlux (Perkin-Elmer). The ratio of the emissions at 665 nm and at 622 nm was taken as the measure for the amount of phosphorylated substrate.

[2] = molecular target: His-tagged human recombinant kinase full-length Akt2 (Homo sapiens (Human), UniProt P31751); assay: Akt2 kinase assay (Akt2 TR-FRET assay); format: biochemical; conditions: 10 μM ATP, 60 min at 22° C., read-out: Akt2 median IC50
His-tagged human recombinant kinase full-length Akt2, sequence (P31751 whole entry): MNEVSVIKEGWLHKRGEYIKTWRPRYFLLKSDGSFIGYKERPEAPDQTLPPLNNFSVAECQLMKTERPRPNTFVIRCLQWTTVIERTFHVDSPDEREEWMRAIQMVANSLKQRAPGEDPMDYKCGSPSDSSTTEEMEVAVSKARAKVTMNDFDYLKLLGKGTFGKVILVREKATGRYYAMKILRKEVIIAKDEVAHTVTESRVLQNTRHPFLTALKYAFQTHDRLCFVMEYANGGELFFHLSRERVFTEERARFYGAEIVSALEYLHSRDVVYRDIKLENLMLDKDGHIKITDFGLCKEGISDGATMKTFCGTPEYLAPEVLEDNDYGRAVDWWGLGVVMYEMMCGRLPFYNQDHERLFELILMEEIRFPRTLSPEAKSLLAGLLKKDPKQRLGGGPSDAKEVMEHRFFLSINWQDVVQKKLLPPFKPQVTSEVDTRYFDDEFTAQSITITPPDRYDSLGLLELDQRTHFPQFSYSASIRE

phospho-AKT at S473 = assay: Cellular p-AKT1/2/3-S473 assay in KPL-4 cells; format: cell-based; conditions: Homo sapiens, KPL4; KPL-4 breast tumour cell line, compound treatment 2 hours; read-out: pAKT-S473 median IC50
Method: (§1) The molecular mechanism of action was investigated in a set of experiments to assess the inhibition of the PI3K-AKT-mTOR pathway in responsive cell lines such as KPL-4 breast tumour cell line (PIK3CA^H1047R, HER2^O/E and hormone independent). The phospho-substrates of PI3K-AKT-mTOR axis were used as the read-outs to reflect pathway inhibition. Cells were seeded at 60-80% confluency per well in 96-well cell culture plates. After overnight incubation at 37° C. 5% CO2, cells were treated with compounds and vehicle at 37° C. for 2 hours. […] All measurements where at least done in duplicates and confirmed by independent repetition.
Alternatively pAKT-S473 was measured using the “Akt Duplex” of the MULTI-SPOT® Assay System (Fa. Meso Scale Discovery, Cat#N41100B-1) following manufacturers instructions. Each assay used 20 μg of protein extract and measured total AKT and p-AKT content simultaneously in one well. All measurements where at least done in duplicates and confirmed by independent repetition. Values for P-AKT are expressed as percentage of P-AKT level compared to total-AKT content of the extracts.

p-4E-BP1 at T70 = assay: Cellular p-4E-BP1-T70 assay in KPL-4 cells; format: cell-based; conditions: Homo sapiens, KPL4; KPL-4 breast tumour cell line, compound treatment 2 hours; read-out: P4EBP1-T70 median IC50
Method: as §1

[3] = tested on: KPL-4 breast cancer cell line; assay: Tumor cell proliferation assay (CellTiter-Glo), KPL-4; format: cell-based; conditions: Homo sapiens, KPL4, 72 h drug exposure, read-out: KLP-4 median IC50
[4] = tested on: MCF-7 breast tumour cell line; assay: Tumor cell proliferation assay (CellTiter-Glo), MCF-7; format: cell-based; conditions: Homo sapiens, MCF7, 72 h drug exposure, read-out: MCF-7 median IC50

His-tagged human recombinant kinase full-length Akt1, sequence (P31749 whole entry): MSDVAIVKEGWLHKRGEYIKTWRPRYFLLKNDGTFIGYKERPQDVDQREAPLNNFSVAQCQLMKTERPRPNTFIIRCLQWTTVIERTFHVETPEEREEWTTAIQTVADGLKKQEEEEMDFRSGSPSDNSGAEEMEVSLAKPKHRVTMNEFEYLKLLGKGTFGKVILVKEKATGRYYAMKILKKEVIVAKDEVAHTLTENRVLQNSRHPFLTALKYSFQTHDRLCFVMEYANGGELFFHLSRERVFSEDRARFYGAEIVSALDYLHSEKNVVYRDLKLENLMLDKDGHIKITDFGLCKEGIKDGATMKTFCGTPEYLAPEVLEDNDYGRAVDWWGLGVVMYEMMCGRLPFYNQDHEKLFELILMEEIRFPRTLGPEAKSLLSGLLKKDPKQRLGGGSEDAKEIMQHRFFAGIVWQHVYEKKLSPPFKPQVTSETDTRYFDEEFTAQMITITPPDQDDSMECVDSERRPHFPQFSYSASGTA

| SMILES | IC50 [1] [nM] | IC50 [2] [nM] | IC50 (phospho-AKT at S473) [nM] | IC50 (p-4E-BP1 at T70) [nM] | IC50 [3] [nM] | IC50 [4] [nM] |
| --- | --- | --- | --- | --- | --- | --- |
| CCOc1cc(Cl)nn2c(-c3ccccc3)c(-c3ccc(C4(N)CCC4)cc3)nc12 [Example 30, 1-[4-(6-Chloro-8-ethoxy-3-phenylimidazo[1,2-b]pyridazin-2-yl)phenyl]cyclobutanamine] | 51 | 58 | 400 | 2500 | 6000 | 2600 |
| CC(=O)Nc1ccc2nc(-c3ccc(C4(N)CCC4)cc3)c(-c3ccccc3)n2n1 [Example 37, N-{2-[4-(1-Aminocyclobutyl)phenyl]-3-phenylimidazo[1,2-b]pyridazin-6-yl}acetamide] | 580 | 510 | 81 | 2500 | 3200 | 2000 |
| NC1(c2ccc(-c3nc4c(-c5ccc(F)cc5)cc(-c5ccc(F)cc5)nn4c3-c3ccccc3)cc2)CCC1 [Example 42, 1-{4-[6,8-Bis(4-fluorophenyl)-3-phenylimidazo[1,2-b]pyridazin-2-yl]phenyl}cyclobutanamine] | 20000 | 20000 | 120 | 2600 | 2800 | 4200 |
| CS(=O)(=O)Nc1ccc2nc(-c3ccc(C4(N)CCC4)cc3)c(-c3ccccc3)n2n1 [Example 45, N-{2-[4-(1-Aminocyclobutyl)phenyl]-3-phenylimidazo[1,2-b]pyridazin-6-yl} methanesulfonamide] | 1200 | 6600 | > 10000 | > 10000 | > 10000 | > 10000 |
| CC(=O)Nc1ccnn2c(-c3ccccc3)c(-c3ccc(C4(N)CCC4)cc3)nc12 [Example 49, N-{2-[4-(1-Aminocyclobutyl)phenyl]-3-phenylimidazo[1,2-b]pyridazin-8-yl}acetamide] | 68 | 120 | 8 | 41 | 140 | 610 |
| Cc1c(Cl)nn2c(-c3ccccc3)c(-c3ccc(C4(N)CCC4)cc3)nc2c1C [Example 50, 1-[4-(6-Chloro-7,8-dimethyl-3-phenylimidazo[1,2-b]pyridazin-2-yl)phenyl]-cyclobutanamine] | 44 | 27 | 450 | 2000 | 1700 | 1800 |
| COC(=O)c1nn2c(-c3ccccc3)c(-c3ccc(C4(N)CCC4)cc3)nc2c(C)c1C [Example 51, Methyl 2-[4-(1-aminocyclobutyl)phenyl]-7,8-dimethyl-3-phenylimidazo[1,2-b]pyridazine-6-carboxylate] | 42 | 81 | 590 | 1200 | 7000 | 1400 |

The next compounds have a lower IC50 [1] than those just listed; values first:

| IC50 [1] [nM] | IC50 [2] [nM] | IC50 (phospho-AKT at S473) [nM] | IC50 (p-4E-BP1 at T70) [nM] | IC50 [3] [nM] | IC50 [4] [nM] | SMILES |
| --- | --- | --- | --- | --- | --- | --- |
| 38 | 160 | 280 | 7500 | > 10000 | 6100 | COC(=O)c1ccc2nc(-c3ccc(C4(N)CCC4)cc3)c(-c3ccccc3)n2n1 [Example 39, Methyl 2-[4-(1-aminocyclobutyl)phenyl]-3-phenylimidazo[1,2-b]pyridazine-6-carboxylate] |
| 33 | 66 | > 10000 | > 10000 | > 10000 | > 10000 | NC1(c2ccc(-c3nc4ccc(Br)nn4c3-c3ccccc3)cc2)CCC1 [Example 41, 1-[4-(6-Bromo-3-phenylimidazo[1,2-b]pyridazin-2-yl)phenyl]cyclobutanamine] |
| 26 | 15 | 2.1 | 9.9 | 140 | 110 | Cc1c(C(N)=O)nn2c(-c3ccccc3)c(-c3ccc(C4(N)CCC4)cc3)nc2c1C [Example 52, 2-[4-(1-Aminocyclobutyl)phenyl]-7,8-dimethyl-3-phenylimidazo[1,2-b]-pyridazine-6-carboxamide] |
